Biological target: Type-2 angiotensin II receptor (Sus scrofa)
Test: Displacement of [125I]-Ang II from angiotensin II receptor type 2 in pig uterus myometrium

Ki	Compound
0.8 nM	CC(C)[C@H](NC(=O)[C@H](CCCNC(=N)N)NC(=O)[C@@H](N)CC(=O)O)C(=O)Nc1cccc2c1N[C@@H](Cc1ccc(O)cc1)C(=O)N(CC(=O)N[C@@H](Cc1cnc[nH]1)C(=O)N1CCC[C@H]1C(=O)N[C@@H](Cc1ccccc1)C(=O)O)C2 [(3S)-3-amino-3-{[(1S)-1-{[(1S)-1-{[(2S)-4-({[(2S)-1-[(2S)-2-{[(1S)-1-carboxy-2-phenylethyl]carbamoyl}pyrrolidin-1-yl]-3-(1H-imidazol-4-yl)-1-oxopropan-2-yl]carbamoyl}methyl)-2-[(4-hydroxyphenyl)methyl]-3-oxo-2,3,4,5-tetrahydro-1H-1,4-benzodiazepin-9-yl]carbamoyl}-2-methylpropyl]carbamoyl}-4-[(diaminomethylidene)amino]butyl]carbamoyl}propanoic acid]
9.3 nM	CC(C)[C@H](NC(=O)[C@H](C)NC(=O)[C@@H](N)CC(=O)O)C(=O)Nc1cccc2c1N[C@@H](Cc1ccc(O)cc1)C(=O)N(CC(=O)N[C@@H](Cc1cnc[nH]1)C(=O)N1CCC[C@H]1C(=O)N[C@@H](Cc1ccccc1)C(=O)O)C2 [(3S)-3-amino-3-{[(1S)-1-{[(1S)-1-{[(2S)-4-({[(2S)-1-[(2S)-2-{[(1S)-1-carboxy-2-phenylethyl]carbamoyl}pyrrolidin-1-yl]-3-(1H-imidazol-4-yl)-1-oxopropan-2-yl]carbamoyl}methyl)-2-[(4-hydroxyphenyl)methyl]-3-oxo-2,3,4,5-tetrahydro-1H-1,4-benzodiazepin-9-yl]carbamoyl}-2-methylpropyl]carbamoyl}ethyl]carbamoyl}propanoic acid]
2.8 nM	N=C(N)NCCC[C@H](NC(=O)[C@@H](N)CC(=O)O)C(=O)Nc1cccc2c1N[C@@H](Cc1ccc(O)cc1)C(=O)N(CC(=O)N[C@@H](Cc1cnc[nH]1)C(=O)N1CCC[C@H]1C(=O)N[C@@H](Cc1ccccc1)C(=O)O)C2 [(3S)-3-amino-3-{[(1S)-1-{[(2S)-4-({[(2S)-1-[(2S)-2-{[(1S)-1-carboxy-2-phenylethyl]carbamoyl}pyrrolidin-1-yl]-3-(1H-imidazol-4-yl)-1-oxopropan-2-yl]carbamoyl}methyl)-2-[(4-hydroxyphenyl)methyl]-3-oxo-2,3,4,5-tetrahydro-1H-1,4-benzodiazepin-9-yl]carbamoyl}-4-[(diaminomethylidene)amino]butyl]carbamoyl}propanoic acid]
